In one data set the target is T1, cloned human V2 receptor (Homo sapiens, UniProt P30518).
T1 construct: expressed in transfected cells
In words: In-vitro vasopressin receptor binding assay, V2. Conditions: 3H-arginine-8-vasopressin; for IC50: footnote 1: IC50 values (μM). As to the method:
Assay buffer is 50 mM Tris-Cl, 5 mM MgC12, 0.1% BSA (pH 7.5) containing 5 ug/ml of aprotinin, leupeptin, pepstatin, 50 ug/ml bacitracin, and 1 mM Pefabloc. H3 vasopressin is ^3H-arginine-8-vasopressin (68.5 Ci/mmol, final concentration in assay is 0.65-0.75nM). Into wells of 96-well round bottom polypropylene plates are added buffer, test compound, membrane (containing cloned human V2 receptor), and H3 vasopressin. The reaction plates are allowed to sit at room temperature for one hour. The samples are filtered through Unifilter GF/C plates (presoaked in 0.3 polyethyleneimine). The plates are washed 5 times with cold physiological saline containing 0.05% Tween 20. After drying, the bottom of the filter plates are sealed and 0.025 ml of Microscint-20 is added to each filter. The top of the plate is sealed, and the plate is counted. Non-specific binding is determined by the addition of 1.25 uM arginine-8-vasopressin in those wells. %Inh. is [formula]

For the next data set, the target named is vasopressin V1a receptor (Homo sapiens, UniProt P37288). Briefly: In-vitro vasopressin receptor binding assay, V1a. Conditions: for IC50: footnote 1: IC50 values (μM).

By IC50 is commonly meant the point on the concentration scale where inhibition reaches its midpoint. A low value points to higher potency. In general, melting point refers to the temperature, or range, at which the solid turns liquid.

Chain of vasopressin V1a receptor (P37288 whole entry): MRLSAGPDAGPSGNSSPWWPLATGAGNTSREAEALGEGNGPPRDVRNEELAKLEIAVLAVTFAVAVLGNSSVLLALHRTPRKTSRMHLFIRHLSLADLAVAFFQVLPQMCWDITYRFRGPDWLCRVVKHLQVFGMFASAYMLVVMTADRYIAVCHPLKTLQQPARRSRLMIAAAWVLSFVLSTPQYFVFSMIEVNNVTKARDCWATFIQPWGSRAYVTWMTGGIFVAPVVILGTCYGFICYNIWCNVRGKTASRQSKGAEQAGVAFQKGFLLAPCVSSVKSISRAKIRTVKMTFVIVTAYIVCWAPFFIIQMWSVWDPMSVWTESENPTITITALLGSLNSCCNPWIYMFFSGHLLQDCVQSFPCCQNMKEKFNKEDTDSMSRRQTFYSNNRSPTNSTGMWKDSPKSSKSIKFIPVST

With `O=C(O)CC1CCN(C(=O)c2ccc(NC(=O)c3ccccc3-c3ccccc3)cc2)c2ccccc2S1` (stereo not shown) [Compound 29, 2-Carboxymethyl-5-(4-(2-phenylbenzolylamino)benzoyl)-1,5-benzothiazepine], the melting point was in the range of 204 to 208 °C. Besides, the 50% inhibitory concentration (IC50) at cloned human V2 receptor was 0.004 µM. Also, the inhibition at 0.1 µM at vasopressin V1a receptor (0.1 μM test compound, read-out: Receptor Binding (% Inh. @ concentration in μM) V1a) was found to be 16%.

`Cc1ccccc1C(=O)Nc1ccc(S(=O)(=O)N2CCC(CCN3CCOCC3)Sc3ccccc32)cc1` (stereo not shown) [Compound 3, 2-[2-(N-Morpholino)-ethyl]-5-[4-(2-methylbenzoylamino)-benzenesulfonyl]-1,5-benzothiazepine]: the “Receptor Binding (% Inh. @ concentration in μM) V2” value on cloned human V2 receptor (25 μM test compound) is given as 37% @ 25. Also, the “Receptor Binding (% Inh. @ concentration in μM) V1a” value on vasopressin V1a receptor (25 μM test compound) worked out at 47% @ 25.

As to `CN(C)CCC1CCN(C(=O)c2ccc(NC(=O)c3ccccc3-c3ccccc3)cc2)c2ccccc2S1` (stereo not shown) [Compound 11, 2-(2-Dimethylaminoethyl)-5-(4-(2-phenylbenzoylamino)benzoyl)-1,5-benzothiazepine], the IC50 at cloned human V2 receptor is 0.43 µM. In addition, the “Receptor Binding (% Inh. @ concentration in μM) V1a” value on vasopressin V1a receptor (10 μM test compound) was 63% @ 10.

Consider “2-(2-Methanesulfonylethyl)-5-[(4-(2-phenylbenzoylamino)benzoyl)]-1,5-benzothiazepine [Compound 16]”, for which the IC50 on cloned human V2 receptor was found to be 0.013 µM; at vasopressin V1a receptor, 1.2 µM.

The molecule “2-(2-Hydroxyethyl)-5-[4-(3,4-dichlorobenzoylamino)benzene-sulfonyl]-1,5-benzothiazepine [Compound 10]” showed an IC50 at cloned human V2 receptor of 2.1 µM. Moreover, at vasopressin V1a receptor (10 μM test compound), the “Receptor Binding (% Inh. @ concentration in μM) V1a” value turned out to be 0% @ 10.

In the case of `Cc1ccccc1C(=O)Nc1ccc(C(=O)N2CCC(CCO)Sc3ccccc32)cc1` (stereo not shown) [Compound 18], the figures for the IC50 at cloned human V2 receptor and on vasopressin V1a receptor were 0.048 µM and 0.041 µM, respectively.

The record behind these values is patent US6489321B1, “Nonpeptide substituted benzothiazepines as vasopressin antagonists” (Ortho-McNeil Pharmaceutical, Inc., priority 1999, dated 2002).
